Data reported in the NIST ThermoML archive (doi:10.1021/je800282a).

Columns and labels:
[1] = for viscosity: 101.33 kPa, Liquid
[2] = refractive index (Na D-line) (dimensionless); conditions: 101.33 kPa, Liquid
[3] = wn = mass fraction of the nth substance listed; conditions: for viscosity: 101 kPa, Liquid
[4] = refractive index (Na D-line) (dimensionless); wn = mass fraction of the nth substance listed; conditions: 101 kPa, Liquid

CN(CCO)CCO [N-methyldiethanolamine]
Conditions | refractive index, [2] | surface tension liquid-gas, [1] [mN/m] | viscosity, [1] [mPa·s]
298.15 K | – | – | 77.85
303.15 K | 1.46532 | 38.74 | –
308.15 K | – | – | 43.9
313.15 K | 1.46074 | 37.48 | –
318.15 K | 1.45892 | – | 27.44
323.15 K | 1.45708 | 36.82 | –
328.15 K | – | – | 17.89
333.15 K | 1.45287 | 35.31 | –
338.15 K | – | – | 12.34

CN(CCO)CCO [N-methyldiethanolamine] + O
Conditions | refractive index | surface tension liquid-gas [mN/m] | viscosity [mPa·s]
[3], 298.15 K, w1 = 0.3228 | – | – | 3.48
[3], 298.15 K, w1 = 0.488 | – | – | 9.25
[3], 303.15 K, w1 = 0.3288 | – | 53.16 | –
[3], 303.15 K, w1 = 0.488 | – | 47.56 | –
[3], 308.15 K, w1 = 0.3228 | – | – | 2.26
[3], 308.15 K, w1 = 0.488 | – | – | 6.14
[3], 313.15 K, w1 = 0.3288 | – | 52.38 | –
[3], 313.15 K, w1 = 0.488 | – | 46.92 | –
[3], 318.15 K, w1 = 0.3228 | – | – | 1.82
[3], 318.15 K, w1 = 0.488 | – | – | 4.37
[3], 323.15 K, w1 = 0.3288 | – | 51.42 | –
[3], 323.15 K, w1 = 0.488 | – | 45.58 | –
[3], 328.15 K, w1 = 0.3228 | – | – | 1.34
[3], 328.15 K, w1 = 0.488 | – | – | 3.46
[3], 333.15 K, w1 = 0.3288 | – | 50.67 | –
[3], 333.15 K, w1 = 0.488 | – | 44.83 | –
[3], 338.15 K, w1 = 0.3228 | – | – | 1.17
[3], 338.15 K, w1 = 0.488 | – | – | 2.81
[4], 303.15 K, w1 = 0.3228 | 1.37748 | – | –
[4], 303.15 K, w1 = 0.488 | 1.40298 | – | –
[4], 313.15 K, w1 = 0.3228 | 1.37604 | – | –
[4], 313.15 K, w1 = 0.488 | 1.39971 | – | –
[4], 318.15 K, w1 = 0.3228 | 1.37467 | – | –
[4], 318.15 K, w1 = 0.488 | 1.39629 | – | –
[4], 323.15 K, w1 = 0.3228 | 1.37305 | – | –
[4], 323.15 K, w1 = 0.488 | 1.39254 | – | –
[4], 333.15 K, w1 = 0.3228 | 1.37134 | – | –
[4], 333.15 K, w1 = 0.488 | 1.38821 | – | –
